In general, Ki refers to a measure of affinity in units of concentration, obtained from inhibition or displacement. By ED50 is commonly meant the dose at which the effect has come halfway, by size or by number of responders.

In one experiment the target is T1, Sigma receptor (Cavia porcellus, UniProt Q60492).
T1 construct: Brain membranes were prepared by the method of Tam; from tissue; host or cells: guinea pig whole brain membranes
The experiment can be described thus: Sigma Receptor Binding Assay. It is filed as guinea pig (male Hartley), brain membranes.

A further experiment deals with T2, Dopamine (D-2) receptor (Cavia porcellus, UniProt H0VE83).
T2 construct: Membranes were prepared from guinea pig striatum; from tissue; host or cells: guinea pig striatum membranes
T2 sequence (H0VE83 1-446): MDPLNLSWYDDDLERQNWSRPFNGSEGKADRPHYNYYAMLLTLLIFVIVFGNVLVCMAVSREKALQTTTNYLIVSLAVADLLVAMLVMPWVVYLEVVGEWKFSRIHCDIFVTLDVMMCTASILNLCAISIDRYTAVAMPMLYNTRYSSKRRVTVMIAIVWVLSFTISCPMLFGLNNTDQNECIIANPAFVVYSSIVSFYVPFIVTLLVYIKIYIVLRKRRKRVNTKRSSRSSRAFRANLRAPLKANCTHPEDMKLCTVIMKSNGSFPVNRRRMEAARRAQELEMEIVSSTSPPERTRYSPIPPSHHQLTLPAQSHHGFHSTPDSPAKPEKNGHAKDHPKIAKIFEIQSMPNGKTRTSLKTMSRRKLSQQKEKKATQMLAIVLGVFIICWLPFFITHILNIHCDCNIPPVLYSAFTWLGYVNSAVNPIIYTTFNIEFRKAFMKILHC
The experiment can be described thus: Dopamine Receptor Binding. The following applies: 0.15 nM [3H]spiperone, guinea pig striatum, pH 7.7, 15 min 37° C.; read-out: Receptor Binding Affinity Dopamine (D-2) (Ki class). It is filed as guinea pig, striatum membranes.

The subject of experiment [1] is isolation-induced aggression in mice. The experiment can be described thus: Isolation-Induced Aggression in Mice. The format is in vivo, mouse (male Balb/c). Conditions: for ED50: Mus musculus, po, 0.25 h, mice, p.o., 15 min after dosing, read-out: Inhibition of Isolation-induced Aggression (ED50 class); for inhibiting the isolation-induced aggressive behavior: statement on Table II.
Protocol: Male Balb/c mice (Charles River) were used. […] Isolated mice failing to consistently attack an intruder were eliminated from the colony.
Drug testing was carried out by treating the isolated mice with test drugs or standards. Fifteen min after dosing with drugs by the oral route (p.o.), one isolated mouse was removed from its home cage and placed in the home cage of another isolate. Scoring was a yes or no response for each pair. A maximum of 3 min was allowed for an attack and the pair was separated immediately upon an attack. Selection of home cage and intruder mice was randomized for each test. Mice were treated and tested twice a week with at least a 2 day washout period between treatments.

Setting [2] is: 1 nM (+)-[3H]SKF 10,047, guinea pig brain membranes, pH 7.4, 45 min room temperature, read-out: Receptor Binding Affinity Sigma (Ki class).

Structures are written as SMILES. Where two headings read alike, the source gives them in different places.

T1 sequence (Q60492 whole entry): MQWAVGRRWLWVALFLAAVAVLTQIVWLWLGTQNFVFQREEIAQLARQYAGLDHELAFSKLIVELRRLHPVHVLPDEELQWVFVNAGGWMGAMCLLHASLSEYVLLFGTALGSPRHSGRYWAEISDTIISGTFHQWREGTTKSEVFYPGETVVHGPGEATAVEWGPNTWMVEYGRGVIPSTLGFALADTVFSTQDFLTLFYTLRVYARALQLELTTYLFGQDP
Protocol for Dopamine (D-2) receptor: Membranes were prepared from guinea pig striatum by the method described for sigma receptor binding. The membranes were then resuspended in 50 mM Tris HCl (9 mL per brain).
Nonspecific binding was measured in the presence of 100 nM (+)-butaclamol After 15 min of incubation at 37° C. samples were filtered rapidly through Whatman GF/C glass filters under negative pressure, and washed three times with ice-cold binding buffer (5 mL).
Protocol for Sigma receptor: Male Hartley guinea pigs (250-300 g, Charles River) were sacrificed by decapitation. […] Whole brains were homogenized (20 sec.) in 10 vol (wt/vol) of ice-cold 0.34 M sucrose with a Brinkmann Polytron (setting 8). The homogenate was centrifuged at 920×g for 10 min. The supernatant was centrifuged at 47,000×g for 20 min. The resulting membrane pellet was resuspended in 10 vol (original wt/vol) of 50 mM Tris HCl (pH 7.4) and incubated at 37° C. for 45 min to degrade and dissociate bound endogenous ligands. The membranes were then centrifuged at 47,000×g for 20 min and resuspended in 50 mM Tris HCl (50 mL per brain).
After 45 rain of incubation at room temperature, samples were filtered rapidly through Whatman GF/C glass filters under negative pressure, and washed 3 times with ice-cold Tris buffer (5 mL).
IC50 s were calculated from log-logit plots. Apparent Ki s were calculated from the equation, Ki =IC50 /[1+(L/Kd)], where L is the concentration of radioligand and Kd is its dissociation constant.

As for `O=C1c2ccccc2C(=O)N1CCC1CCN(CCc2ccccc2)CC1` [Example 39], the figures for the Ki on Sigma receptor (setting [2]) and on Dopamine (D-2) receptor were 1 to 30 nM and > 500 nM, respectively. In experiment [1], the ED50 lay in the range of 21 to 70 mg/kg.
Regarding `O=C1[C@H]2CCCC[C@H]2C(=O)N1CC1CCN(CCC2CCCCC2)CC1` [Example 17], the values for the inhibition constant (Ki) at Sigma receptor (setting [2]) and on Dopamine (D-2) receptor were 1 to 30 nM and > 500 nM, respectively. The “inhibiting the isolation-induced aggressive behavior” value in experiment [1] was “potent activities”.
As to `O=C1c2ccccc2C(=O)N1CC1CCCN(Cc2ccccc2)C1` (stereo not drawn) [Example 47], the Ki was 1 to 30 nM on Sigma receptor (setting [2]) and > 500 nM on Dopamine (D-2) receptor.
For the molecule `O=C1C2=C(CN1CC1CCN(CCc3ccccc3)CC1)C1CCCC2CC1` (stereo not drawn) [Example 71], the results for the inhibition constant (Ki) on Sigma receptor (setting [2]) and on Dopamine (D-2) receptor were 1 to 30 nM and > 500 nM, respectively.
For the molecule `O=C1c2ccccc2C(=O)N1CC1CCN(Cc2ccccc2)CC1` [Example 34], the inhibition constant Ki on Sigma receptor (setting [2]) was 1 to 30 nM; on Dopamine (D-2) receptor it was > 500 nM. Moreover, the ED50 in experiment [1] is 11 to 20 mg/kg.
`O=C1[C@H]2CCCC[C@H]2C(=O)N1CC1(O)CCN(CCc2ccccc2)CC1` [Example 74]: the values for the inhibition constant (Ki) at Sigma receptor (setting [2]) and at Dopamine (D-2) receptor were 101 to 500 nM and > 500 nM, respectively.
For `O=C1C2C(c3ccccc3)CCC(c3ccccc3)C2C(=O)N1CC1CCN(CCc2ccccc2)CC1` (stereo not drawn) [Example 68], in that order: 101 to 500 nM and > 500 nM.
For `CCCC1C2c3ccccc3C=CC2C(=O)N1CCC1CCN(CCc2ccccc2)CC1` (stereo not drawn) [Example 86], the inhibition constant Ki on Sigma receptor (setting [2]) and on Dopamine (D-2) receptor was 101 to 500 nM in each case.
As for `O=C1c2ccccc2C(=O)N1CCC1CCN(Cc2ccc(F)cc2)CC1` [Example 41], the Ki is 1 to 30 nM on Sigma receptor (setting [2]) and > 500 nM on Dopamine (D-2) receptor.
On to `O=C1[C@H]2CCCC[C@H]2C(=O)N1CC1=CCN(CCc2ccccc2)CC1` [Example 119], for which the Ki is 1 to 30 nM on Sigma receptor (setting [2]) and > 500 nM on Dopamine (D-2) receptor.
On the same counts, the results for `O=C1[C@H]2CCCC[C@H]2C(=O)N1CC1CCN(CCCc2ccccc2)CC1` [Example 16] are 31 to 100 nM and > 500 nM.
Take `CC1CC[C@@H]2C(=O)N(CC3CCN(CCc4ccccc4)CC3)C(=O)[C@@H]2C1` (stereo partly drawn) [Example 23]: the inhibition constant Ki is 1 to 30 nM at Sigma receptor (setting [2]) and > 500 nM on Dopamine (D-2) receptor. In experiment [1], the 50% effective dose (ED50) lay in the range of 21 to 70 mg/kg.
For `O=C1C2CC=CCC2C(=O)N1CC1CCN(CCc2ccccc2)CC1` (stereo not drawn) [Example 52], the inhibition constant (Ki) was 1 to 30 nM on Sigma receptor (setting [2]) and > 500 nM on Dopamine (D-2) receptor.
Regarding `O=C1C2C3C=CC(C4CC34)C2C(=O)N1CC1CCN(CCc2ccccc2)CC1` (stereo not drawn) [Example 69], the Ki on Sigma receptor (setting [2]) was 1 to 30 nM; at Dopamine (D-2) receptor, > 500 nM.
Take `O=C1c2ccccc2C(=O)N1CCC1=CCN(CCc2ccccc2)CC1` [Example 115]: the figures for the Ki at Sigma receptor (setting [2]) and at Dopamine (D-2) receptor were 1 to 30 nM and > 500 nM, respectively.
Take `O=C1c2cccc3cccc(c23)C(=O)N1CCC1CCN(CCc2ccccc2)CC1` [Example 9]: the inhibition constant Ki fell in the range of 1 to 30 nM at Sigma receptor (setting [2]) and 101 to 500 nM on Dopamine (D-2) receptor.
Turning to `O=C1[C@H]2CCCC[C@H]2C(=O)N1C1CCN(Cc2ccccc2)CC1` [Example 12], the Ki was 1 to 30 nM at Sigma receptor (setting [2]) and > 500 nM at Dopamine (D-2) receptor.
On the same counts, the results for `O=C1C2=C(CCCC2)C(=O)N1CC1CCN(CCc2ccccc2)CC1` [Example 56] are 1 to 30 nM and > 500 nM.
Consider `O=C1[C@H]2CCCC[C@H]2C(=O)N1CC1(c2csc3ccccc23)CCN(CCc2ccccc2)CC1` [Example 129], for which the inhibition constant (Ki) was in the range of 1 to 30 nM on Sigma receptor and 101 to 500 nM at Dopamine (D-2) receptor.
Turning to `O=C1[C@H]2CCCC[C@H]2C(=O)N1CC1CCN(Cc2ccc(F)cc2)CC1` [Example 20], the inhibitory constant (Ki) was 1 to 30 nM on Sigma receptor (setting [2]) and > 500 nM on Dopamine (D-2) receptor.
Turning to `O=C1[C@H]2CCCC[C@H]2C(=O)N1CCCC1=CCN(CCc2ccccc2)CC1` [Example 121], the Ki was 1 to 30 nM on Sigma receptor (setting [2]) and > 500 nM on Dopamine (D-2) receptor.
On the same counts, the results for `CC12CCCCC1(C)C(=O)N(CC1CCN(CCc3ccccc3)CC1)C2=O` (stereo not drawn) [Example 65] are 31 to 100 nM and 101 to 500 nM.
As for `O=C1c2ccccc2C(=O)N1CCC1CCCCN1Cc1ccccc1` (stereo not drawn) [Example 50], the Ki at Sigma receptor (setting [2]) was 31 to 100 nM; at Dopamine (D-2) receptor, > 500 nM.
`O=C1c2ccccc2C(=O)N1CCCC1CCCN(Cc2ccccc2)C1` (stereo not drawn) [Example 4, 2-[3-[1-(phenylmethyl)-3-piperidinyl]propyl]-1H-isoindole-1,3(2H)-dione]: the values for the inhibitory constant (Ki) at Sigma receptor (setting [2]) and on Dopamine (D-2) receptor were 1 to 30 nM and > 500 nM, respectively.
For `O=C1c2ccccc2C(=O)N1CCCC1=CCN(CCc2ccccc2)CC1` [Example 116], in that order: 31 to 100 nM and > 500 nM.
In the case of `O=C1c2ccccc2C(=O)N1CC1CCN(CCc2ccccc2)CC1` [Example 2, 2-[1-(2-Phenylethyl)-4-piperidinylmethyl]-1H-isoindole-1,3(2H)-dione], the inhibitory constant (Ki) at Sigma receptor (setting [2]) was 31 to 100 nM; at Dopamine (D-2) receptor, > 500 nM.
For `O=C1c2ccccc2C(=O)N1CC1CCN(Cc2ccc(F)cc2)CC1` [Example 36], in that order: 1 to 30 nM and > 500 nM.
With `O=C1[C@H]2CCCC[C@H]2C(=O)N1CC1CCN(CC2CCCCC2)CC1` [Example 15], the Ki at Sigma receptor (setting [2]) was 1 to 30 nM; on Dopamine (D-2) receptor, > 500 nM. For the same molecule, the “inhibiting the isolation-induced aggressive behavior” value in experiment [1] is reported as “potent activities”.
As to `O=C1C2=C(CCCC2)CN1CC1CCN(CCc2ccccc2)CC1` [Example 6, 2,3,4,5,6,7-hexahydro-2-[[1-(2-phenylethyl)-4-piperidinyl]methyl]-1H-isoindol-1-one], the inhibition constant Ki at Sigma receptor (setting [2]) lay in the range of 31 to 100 nM. The inhibition constant (Ki) on Dopamine (D-2) receptor is > 500 nM. Besides, in experiment [1], the median effective dose (ED50) was in the range of 21 to 70 mg/kg and the “inhibiting the isolation-induced aggressive behavior” value is “potent activities”.
As to `O=C1[C@H]2CCCC[C@H]2C(=O)N1CC1(c2cccc3ccccc23)CCN(CCc2ccccc2)CC1` [Example 127], the Ki is 31 to 100 nM at Sigma receptor and > 500 nM at Dopamine (D-2) receptor.
`O=C1c2ccccc2C(=O)N1CC1CCN(Cc2cccc(F)c2)CC1` [Example 35]: the inhibition constant (Ki) at Sigma receptor (setting [2]) was 31 to 100 nM; on Dopamine (D-2) receptor it was > 500 nM.
`O=C1C2C3C=CC(C4CCC34)C2C(=O)N1CC1CCN(CCc2c[nH]c3ccccc23)CC1` (stereo not drawn) [Example 10]: the Ki on Sigma receptor (setting [2]) is 1 to 30 nM; at Dopamine (D-2) receptor, 31 to 100 nM.
As for `O=C1C2C3CCCC(CC3)C2C(O)N1CC1CCN(CCc2ccccc2)CC1` (stereo not drawn) [Example 73], the inhibition constant Ki on Sigma receptor (setting [2]) is 31 to 100 nM; on Dopamine (D-2) receptor, > 500 nM.
For `O=C1C2CC(O)C(O)CC2C(=O)N1CC1CCN(CCc2ccccc2)CC1` (stereo not drawn) [Example 63], in that order: > 500 nM and > 500 nM.
For `CC1(CN2C(=O)[C@H]3CCCC[C@H]3C2=O)CCN(CCC2CCCCC2)CC1` [Example 133], in that order: 1 to 30 nM and > 500 nM.
For `O=C1[C@H]2CCCC[C@H]2C(=O)N1CCCC1CCN(CCc2ccccc2)CC1` [Example 33], in that order: 1 to 30 nM and > 500 nM.
On to `O=C1c2ccccc2C(=O)N1CC1CCN(CC2CC2)CC1` [Example 37], for which the inhibition constant Ki on Sigma receptor (setting [2]) was 101 to 500 nM; at Dopamine (D-2) receptor, > 500 nM.

Source of the values: US5480892A, “(N-phthalimidoalkyl)piperidines” (The Du Pont Merck Pharmaceutical Company, priority 1994, dated 1996).
